In publication PMC6611794, “Development of a high-throughput strategy for discovery of potent analogues of antibiotic lysocin E” (Nature Communications, 2019):
Where two headings read alike, the source gives them in different places. Where a SMILES comes first, the peptide text is derived from it. Bridges are numbered along the chain shown (N, C = ends). [ ]: non-standard residue; d: D form. The star is where a group is joined. Hexanoyl(3R-OH,5-Me) = CC(C)C[C@@H](O)CC(=O)*; dNMeF = CN[C@H](Cc1ccccc1)C(=O)O; dOrn = NCCC[C@@H](N)C(=O)O

Assays:
[1] = Method: (§1) Preparation of LUVs consisting of PC/PG/MK-4 or PC/PG/UQ-10. To a solution of egg yolk phosphatidylcholine (9.48 mg, 12.4 µmol) and egg yolk phosphatidylglycerol (9.66 mg, 12.4 µmol) in CHCl3 (0.208 mL) was added a solution of MK-4 (2) or UQ-10 (3) (0.313 µmol) in CHCl3 (21.8 µL). The solution was concentrated, and dried under vacuum to for m a lipid thin film. The thin film was hydrated and suspended in carboxyfluorescein-containing buffer solution (0.500 mL, 5 mM HEPES, 20 mM carboxyfluorescein , pH 7.5) by vortexing and sonication. After five-times freeze-thaw cycles, the lipid suspension was extruded 19 times through a polycarbonate filter with 0.40 µm of pore siz e in the diameter.
(§2) The external carboxyfluorescein -containing buffer was replaced with a carboxyfluorescein -free buffer solution (20 mM HEPES, 1 mM EDTA, pH 7.5) through size exclusion chromatography using disposable PD -10 column. Concentration of egg yolk phosphatidylcholine was determined by using Phospholipid C -Test Wako.
(§3) The final concentration of egg yolk phosphatidylcholine was adjusted to 4.0 µM with the carboxyfluorescein -free buffer solution, and the solution was used for membrane disruption ass ay.
(§4) Membrane disruption assay. […]
(§5) to various concentrations as 5-fold serial dilutions. The solution of peptides (2 µL/well) and the carboxyfluorescein-encapsulated LUV suspension (200 µL/well) were mixed in black polystyrene flat-bottom 96-well plates. The final concentration of peptides ranged from 2970 nM to 0.950 nM. The plates were vortexed at room temperature for 30 min, and then fluorescence of carboxyfluorescein (Ex. 490 nm/Em. 517 nm) of each well was measured at room temperature on Gemini EM microplate reader. Trion X-100/H2O (5/95, 2 µL), MeOH/H2O (4/6, 2 µL), and the LUV suspension were mixed in each plate to determine 100% lysis. MeOH/H2O (4/6, 2 µL) and the LUV suspension were mixed in each plate to determine 0% lysis.
(§6) The membrane disruption activities of tested peptides (I) were normalized against 100% lysis by Triton X -100 […]
(§7) (Imax) and 0% lysis by MeOH/H2O (4/6) (I0) as following, where Ix is the fluorescence intensity (Supplementary Equation 2).
(§8) I = 100 × (Ix – I0) / (Imax – I0) (2)
(§9) The membrane-disrupting activities were evaluated as half-maximal response (EC50, nM) values by means of three replicates. Sigmoidal curve fittings were performed on R2 with drc package (Supplementary Figs S7–S9).3 Two-parameter logistic model was applied for the fitting.

[2] = Liposomal membrane disruption assay (carboxyfluorescein LUVs); type: biochemical
Method: Preparation of LUVs consisting of PC/PG. Carboxyfluorescein-encapsulated large unilamellar vesicles (LUVs) were prepared according to the thin-film hydration method, followed by extrusion through Nuclepore polycarbonate filters (GE Healthcare) mounted in the mini-extruder apparatus (Avanti Polar Lipids). A solution of egg yolk phosphatidylcholine (9.60 mg, 12.5 µmol) and egg yolk phosphatidylglycerol (9.78 mg, 12.5 µmol) in CHCl3 (0.505 mL) was concentrated, and dried under vacuum to form a lipid thin film. The thin film was hydrated and suspended in carboxyfluorescein-containing buffer solution [0.500 mL, 5 mM 4-(2-hydroxyethyl)-1-piperazineethanesulfonic acid (HEPES), 20 mM carboxyfluorescein, pH 7.5] by vortexing and sonication. After five -times freeze-thaw cycles, the lipid suspension was extruded 19 times through a polycarbonate filter with 0.40 µm of pore size in the diameter. The external carboxyfluorescein -containing buffer was replaced w ith a carboxyfluorescein -free buffer solution [20 mM HEPES, 1 mM ethylenediaminetetraacetic acid (EDTA), pH 7.5] through size exclusion chromatography using disposable PD-10 column (GE Healthcare). Concentration of egg yolk phosphatidylcholine was determined by using Phospholipid C-Test Wako (Fujifilm Wako Pure Chemical). The final concentration of egg yolk phosphatidylcholine was adjusted to 4.0 µM with the carboxyfluorescein-free buffer solution, and the solution was used for membrane disruption assay. […]
as §4, §5, §6, §7, §8, §9

[3] = as above; type: biochemical; remark: listed apart in the source
Method: as §1, §2, §3
as §5, with “Membrane disruption assay. Peptides 1, A1–A22, B1–B5, and C1–C5 were diluted with MeOH/H2O (4/6) to various” for “to various”
as §6, §7, §8, §9

[4] = read-out: EC50 PC/PG/2 1st, PC/PG/2 LUVs, 1st experiment
[5] = read-out: EC50 PC/PG/2 2nd, PC/PG/2 LUVs, 2nd experiment
[6] = read-out: EC50 PC/PG/2 3rd, PC/PG/2 LUVs, 3rd experiment
[7] = read-out: EC50 PC/PG/2, 30 min, room temperature, mean ± SD of three independent experiments
[8] = 30 min, room temperature, mean ± SD of three independent experiments, read-out: EC50 PC/PG
[9] = PC/PG LUVs, 1st experiment, read-out: EC50 PC/PG 1st
[10] = PC/PG LUVs, 2nd experiment, read-out: EC50 PC/PG 2nd
[11] = PC/PG LUVs, 3rd experiment, read-out: EC50 PC/PG 3rd
[12] = 30 min, room temperature, mean ± SD of three independent experiments, read-out: EC50 PC/PG/3
[13] = PC/PG/3 LUVs, 1st experiment, read-out: EC50 PC/PG/3 1st
[14] = PC/PG/3 LUVs, 2nd experiment, read-out: EC50 PC/PG/3 2nd
[15] = PC/PG/3 LUVs, 3rd experiment, read-out: EC50 PC/PG/3 3rd

| Compound | EC50 [1, 4] | EC50 [1, 5] | EC50 [1, 6] | EC50 [1, 7] | EC50 [2, 8] | EC50 [2, 9] | EC50 [2, 10] | EC50 [2, 11] | EC50 [3, 12] | EC50 [3, 13] | EC50 [3, 14] | EC50 [3, 15] | selectivity index (EC50 against PC/PG/3 divided by EC50 against PC/PG/2) [1] |
| --- | --- | --- | --- | --- | --- | --- | --- | --- | --- | --- | --- | --- | --- |
| CC[C@H](C)[C@@H]1NC(=O)[C@@H](Cc2c[nH]c3ccccc23)NC(=O)[C@@H](CCC(N)=O)NC(=O)[C@H](CCC(=O)O)NC(=O)[C@@H](CCCNC(=N)N)NC(=O)[C@H](CC(C)C)NC(=O)[C@@H](Cc2ccccc2)N(C)C(=O)CNC(=O)[C@H](CO)NC(=O)[C@@H](CCCNC(=N)N)NC(=O)[C@@H](NC(=O)C[C@H](O)CC(C)C)[C@@H](C)OC(=O)[C@H]([C@@H](C)O)NC1=O [Peptide 1, Lysocin E] ({Hexanoyl(3R-OH,5-Me)}-T[dR]SG[dNMeF]L[dR]E[dQ][dW]IT; ester 1-C) | 0.0167 µM | 0.034 µM | 0.0079 µM | 0.0195 µM | 0.559 µM | 0.527 µM | 0.689 µM | 0.46 µM | 0.092 µM | 0.058 µM | 0.167 µM | 0.0516 µM | 4.7 |
| CC[C@H](C)[C@@H]1NC(=O)[C@@H](Cc2c[nH]c3ccccc23)NC(=O)[C@@H](CCCN)NC(=O)[C@H](CCC(=O)O)NC(=O)[C@@H](CCCNC(=N)N)NC(=O)[C@H](CC(C)C)NC(=O)[C@@H](Cc2ccccc2)N(C)C(=O)CNC(=O)[C@H](CC(N)=O)NC(=O)[C@@H](CCCNC(=N)N)NC(=O)[C@@H](NC(=O)C[C@H](O)CC(C)C)[C@@H](C)OC(=O)[C@H]([C@@H](C)O)NC1=O [Peptide A14] ({Hexanoyl(3R-OH,5-Me)}-T[dR]NG[dNMeF]L[dR]E[dOrn][dW]IT; ester 1-C) | 0.118 µM | 0.0791 µM | 0.0319 µM | 0.0763 ± 0.0431 µM | > 1.5 µM | > 1.5 µM | > 1.5 µM | > 1.5 µM |  | 0.999 µM | > 1.5 µM | 0.867 µM | > 19.7 |
| CC(C)C[C@@H](O)CC(=O)N[C@@H]1C(=O)N[C@H](CCCNC(=N)N)C(=O)N[C@@H](C)C(=O)NCC(=O)N(C)[C@H](Cc2ccccc2)C(=O)N[C@@H](CC(C)C)C(=O)N[C@H](CCCNC(=N)N)C(=O)N[C@@H](CCC(=O)O)C(=O)N[C@H](Cc2ccc(O)cc2)C(=O)N[C@H](Cc2c[nH]c3ccccc23)C(=O)N[C@@H](Cc2ccc(O)cc2)C(=O)N[C@@H]([C@@H](C)O)C(=O)O[C@@H]1C [Peptide A15] ({Hexanoyl(3R-OH,5-Me)}-T[dR]AG[dNMeF]L[dR]E[dY][dW]YT; ester 1-C) | 0.0576 µM | 0.0396 µM | 0.009 µM | 0.0354 ± 0.0246 µM | 1.01 ± 0.21 µM | 1.26 µM | 0.889 µM | 0.895 µM | 0.268 ± 0.102 µM | 0.231 µM | 0.383 µM | 0.189 µM |  |

The remaining compounds from weak to strong by EC50 [1, 4], led by results:

| EC50 [1, 4] | EC50 [1, 5] | EC50 [1, 6] | EC50 [1, 7] | EC50 [2, 8] | EC50 [2, 9] | EC50 [2, 10] | EC50 [2, 11] | EC50 [3, 12] | EC50 [3, 13] | EC50 [3, 14] | EC50 [3, 15] | Compound | selectivity index (EC50 against PC/PG/3 divided by EC50 against PC/PG/2) [1] |
| --- | --- | --- | --- | --- | --- | --- | --- | --- | --- | --- | --- | --- | --- |
| 0.0311 µM | 0.0183 µM | 0.0046 µM | 0.018 ± 0.0133 µM | 0.714 ± 0.188 µM | 0.917 µM | 0.68 µM | 0.545 µM |  | 0.0897 µM | 0.133 µM | 0.0575 µM | CC[C@H](C)[C@@H]1NC(=O)[C@@H](Cc2c[nH]c3ccccc23)NC(=O)[C@@H](C(C)C)NC(=O)[C@H](CCC(=O)O)NC(=O)[C@@H](CCCNC(=N)N)NC(=O)[C@H](CC(C)C)NC(=O)[C@@H](Cc2ccccc2)N(C)C(=O)CNC(=O)[C@H](C)NC(=O)[C@@H](CCCNC(=N)N)NC(=O)[C@@H](NC(=O)C[C@H](O)CC(C)C)[C@@H](C)OC(=O)[C@H]([C@@H](C)O)NC1=O [Peptide A2] ({Hexanoyl(3R-OH,5-Me)}-T[dR]AG[dNMeF]L[dR]E[dV][dW]IT; ester 1-C) |  |
| 0.0259 µM | 0.00468 µM | 0.0061 µM | 0.0122 ± 0.0119 µM | 0.975 ± 0.195 µM | 1.08 µM | 1.09 µM | 0.75 µM | 0.0927 ± 0.0313 µM | 0.128 µM | 0.0821 µM | 0.0681 µM | CC[C@H](C)[C@@H]1NC(=O)[C@@H](Cc2c[nH]c3ccccc23)NC(=O)[C@@H](CCC(N)=O)NC(=O)[C@H](CCC(=O)O)NC(=O)[C@@H](CCCNC(=N)N)NC(=O)[C@H](CC(C)C)NC(=O)[C@@H](Cc2ccccc2)N(C)C(=O)CNC(=O)[C@H](C)NC(=O)[C@@H](CCCNC(=N)N)NC(=O)[C@@H](NC(=O)C[C@H](O)CC(C)C)[C@@H](C)OC(=O)[C@H]([C@@H](C)O)NC1=O [Peptide A1] ({Hexanoyl(3R-OH,5-Me)}-T[dR]AG[dNMeF]L[dR]E[dQ][dW]IT; ester 1-C) |  |
| 0.0246 µM | 0.0278 µM | 0.0149 µM | 0.0224 ± 0.0067 µM | 1.12 ± 0.2 µM | 1.32 µM | 1.12 µM | 0.923 µM | 0.441 ± 0.136 µM | 0.334 µM | 0.595 µM | 0.395 µM | CC[C@H](C)[C@@H]1NC(=O)[C@@H](Cc2c[nH]c3ccccc23)NC(=O)[C@@H](CCCN)NC(=O)[C@H](CCC(=O)O)NC(=O)[C@@H](CCCNC(=N)N)NC(=O)[C@H](CC(C)C)NC(=O)[C@@H](Cc2ccccc2)N(C)C(=O)CNC(=O)[C@H](Cc2ccc(O)cc2)NC(=O)[C@@H](CCCNC(=N)N)NC(=O)[C@@H](NC(=O)C[C@H](O)CC(C)C)[C@@H](C)OC(=O)[C@H]([C@@H](C)O)NC1=O [Peptide A7] ({Hexanoyl(3R-OH,5-Me)}-T[dR]YG[dNMeF]L[dR]E[dOrn][dW]IT; ester 1-C) | 19.7 |
| 0.00768 µM | 0.0146 µM | 0.0098 µM | 0.0107 ± 0.0035 µM | 0.822 ± 0.234 µM | 1.01 µM | 0.9 µM | 0.559 µM | 0.103 ± 0.085 µM | 0.0474 µM | 0.201 µM | 0.0609 µM | CC[C@H](C)[C@@H]1NC(=O)[C@@H](Cc2c[nH]c3ccccc23)NC(=O)[C@@H](C(C)C)NC(=O)[C@H](CCC(=O)O)NC(=O)[C@@H](CCCNC(=N)N)NC(=O)[C@H](CC(C)C)NC(=O)[C@@H](Cc2ccccc2)N(C)C(=O)CNC(=O)[C@H](CCCCN)NC(=O)[C@@H](CCCNC(=N)N)NC(=O)[C@@H](NC(=O)C[C@H](O)CC(C)C)[C@@H](C)OC(=O)[C@H]([C@@H](C)O)NC1=O [Peptide A3] ({Hexanoyl(3R-OH,5-Me)}-T[dR]KG[dNMeF]L[dR]E[dV][dW]IT; ester 1-C) |  |
